Patent publication US9284321B2, “Piperazino[1,2-a]indol-1-ones and [1,4]diazepino[1,2-a]indol-1-one” (Hoffmann-La Roche Inc., priority 2012, dated 2016)

Legend:
[1] = system: human embryonic stem cell derived neural stem cells (NSCs); assay: Neural Stem Cell Proliferation Assay (neurogenesis assay, ATP levels by CellTiterGlo); format: cell-based; conditions: 96 h, compound concentration at which 150% activity of control (100%) is reached, NSC proliferation by ATP level after 4 days incubation, dose response 8 μM to 8 nM
In short: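 Read-out is CellTiterGlo ATP luminescence after 4-day culture (37 °C, 5% CO2) of dual-SMAD-derived human ESC NSCs, dosed 4 h post-seeding at 8 μM to 8 nM (11 points, 2-fold). EC150 marks the concentration reaching 150% of the media-only control (0.25% DMSO).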

SMILES	melting point	EC (150% of control) [1]
Cc1c2n(c3c(-c4ncc(C(F)(F)F)s4)cc(F)cc13)CCNC2=O [Example 186, 8-Fluoro-10-methyl-6-[5-(trifluoromethyl)-1,3-thiazol-2-yl]-3,4-dihydro-2H-pyrazino[1,2-a]indol-1-one]	263 °C	0.33 µM
O=C1NCCn2c1c(C(F)(F)F)c1cc(Cl)cc(-c3ccc(Cl)cc3)c12 [Example 187, 8-Chloro-6-(4-chlorophenyl)-10-(trifluoromethyl)-3,4-dihydro-2H-pyrazino[1,2-a]indol-1-one]	214 °C	0.088 µM
Cc1c2n(c3c(-c4ccco4)cc(F)cc13)CCNC2=O [Example 188, 8-Fluoro-6-(furan-2-yl)-10-methyl-3,4-dihydro-2H-pyrazino[1,2-a]indol-1-one]	236 °C	0.1 µM
N#Cc1cc(-c2cc(F)c(F)c(F)c2)c2c(c1)cc1n2CCNC1=O [Example 189, 1-Oxo-6-(3,4,5-trifluorophenyl)-3,4-dihydro-2H-pyrazino[1,2-a]indole-8-carbonitrile]	304.5 °C	0.22 µM
CS(=O)(=O)c1ccc(-c2cc(C#N)cc3cc4n(c23)CCNC4=O)cc1 [Example 191, 6-(4-Methylsulfonylphenyl)-1-oxo-3,4-dihydro-2H-pyrazino[1,2-a]indole-8-carbonitrile]	329 °C	0.24 µM
N#Cc1cc(-c2ccc(Cl)c(Cl)c2)c2c(c1)cc1n2CCNC1=O [Example 192, 6-(3,4-Dichlorophenyl)-1-oxo-3,4-dihydro-2H-pyrazino[1,2-a]indole-8-carbonitrile]	330.5 °C	0.13 µM
N#Cc1cc(-c2cccc(Cl)c2)c2c(c1)cc1n2CCNC1=O [Example 193, 6-(3-Chlorophenyl)-1-oxo-3,4-dihydro-2H-pyrazino[1,2-a]indole-8-carbonitrile]	241.5 °C	0.32 µM
N#Cc1cccc(-c2cc(C#N)cc3cc4n(c23)CCNC4=O)c1 [Example 194, 6-(3-Cyanophenyl)-1-oxo-3,4-dihydro-2H-pyrazino[1,2-a]indole-8-carbonitrile]	253 °C	1.08 µM
N#Cc1cc(-c2cccc(C(F)(F)F)c2)c2c(c1)cc1n2CCNC1=O [Example 195, 1-Oxo-6-[3-(trifluoromethyl)phenyl]-3,4-dihydro-2H-pyrazino[1,2-a]indole-8-carbonitrile]	279.5 °C	1.4 µM
N#Cc1cc(-c2ccc(F)c(F)c2F)c2c(c1)cc1n2CCNC1=O [Example 202, 1-Oxo-6-(2,3,4-trifluorophenyl)-3,4-dihydro-2H-pyrazino[1,2-a]indole-8-carbonitrile]	294 °C	0.046 µM
N#Cc1cc(-c2ccc(F)nc2)c2c(c1)cc1n2CCNC1=O [Example 203, 6-(6-Fluoropyridin-3-yl)-1-oxo-3,4-dihydro-2H-pyrazino[1,2-a]indole-8-carbonitrile]	268 °C	0.36 µM
N#Cc1cc(-c2ccc(Cl)c(C(F)(F)F)c2)c2c(c1)cc1n2CCNC1=O [Example 204, 6-[4-Chloro-3-(trifluoromethyl)phenyl]-1-oxo-3,4-dihydro-2H-pyrazino[1,2-a]indole-8-carbonitrile]	347 °C	1.28 µM
Cc1c2n(c3c(-c4ccc(Cl)cc4Cl)cc(C#N)cc13)CCCNC2=O [Example 206, 7-(2,4-Dichlorophenyl)-11-methyl-1-oxo-2,3,4,5-tetrahydro-[1,4]diazepino[1,2-a]indole-9-carbonitrile]	257 °C	0.031 µM
Cc1c2n(c3c(-c4ccc(Cl)cc4F)cc(C#N)cc13)CCCNC2=O [Example 207, 7-(4-Chloro-2-fluorophenyl)-11-methyl-1-oxo-2,3,4,5-tetrahydro-[1,4]diazepino[1,2-a]indole-9-carbonitrile]	259 °C	0.019 µM
COc1cc(-c2ccc(F)cc2)c2c(c1)cc1n2CCNC1=O [Example 210, 6-(4-Fluorophenyl)-8-methoxy-3,4-dihydro-2H-pyrazino[1,2-a]indol-1-one]	220 °C	2.29 µM

The next lines start with results.

melting point	SMILES	EC (150% of control) [1]
311.5 °C	N#Cc1cc(-c2ccc(OC(F)(F)F)cc2)c2c(c1)cc1n2CCNC1=O [Example 190, 1-Oxo-6-[4-(trifluoromethoxy)phenyl]-3,4-dihydro-2H-pyrazino[1,2-a]indole-8-carbonitrile]	0.037 µM
278 °C	Cc1c2n(c3c(-c4ccc(F)c(F)c4)cc(C#N)cc13)CCCNC2=O [Example 196, 7-(3,4-Difluorophenyl)-11-methyl-1-oxo-2,3,4,5-tetrahydro-[1,4]diazepino[1,2-a]indole-9-carbonitrile]	0.086 µM
252 °C	Cc1c2n(c3c(-c4ccc(C(F)(F)F)cc4)cc(C#N)cc13)CCCNC2=O [Example 197, 11-Methyl-1-oxo-7-[4-(trifluoromethyl)phenyl]-2,3,4,5-tetrahydro-[1,4]diazepino[1,2-a]indole-9-carbonitrile]	0.14 µM
278 °C	Cc1c2n(c3c(-c4ccc(F)cc4)cc(C#N)cc13)CCCNC2=O [Example 198, 7-(4-Fluorophenyl)-11-methyl-1-oxo-2,3,4,5-tetrahydro-[1,4]diazepino[1,2-a]indole-9-carbonitrile]	0.033 µM
298 °C	Cc1c2n(c3c(-c4ccc(Cl)cc4)cc(C#N)cc13)CCCNC2=O [Example 199, 7-(4-Chlorophenyl)-11-methyl-1-oxo-2,3,4,5-tetrahydro-[1,4]diazepino[1,2-a]indole-9-carbonitrile]	0.053 µM
314 °C	Cc1c2n(c3c(-c4ccc(C#N)cc4)cc(C#N)cc13)CCCNC2=O [Example 200, 7-(4-Cyanophenyl)-11-methyl-1-oxo-2,3,4,5-tetrahydro-[1,4]diazepino[1,2-a]indole-9-carbonitrile]	0.041 µM
218 °C	Cc1c2n(c3c(-c4ccc(OC(F)(F)F)cc4)cc(C#N)cc13)CCCNC2=O [Example 201, 11-Methyl-1-oxo-7-[4-(trifluoromethoxy)-phenyl]-2,3,4,5-tetrahydro-[1,4]diazepino[1,2-a]indole-9-carbonitrile]	0.048 µM
225 °C	Cc1c2n(c3c(-c4ccc(F)cc4F)cc(C#N)cc13)CCCNC2=O [Example 205, 7-(2,4-Difluorophenyl)-11-methyl-1-oxo-2,3,4,5-tetrahydro-[1,4]diazepino[1,2-a]indole-9-carbonitrile]	0.031 µM
264 °C	Cc1c2n(c3c(-c4ccnc(F)c4)cc(C#N)cc13)CCCNC2=O [Example 208, 7-(2-Fluoropyridin-4-yl)-11-methyl-1-oxo-2,3,4,5-tetrahydro-[1,4]diazepino[1,2-a]indole-9-carbonitrile]	0.049 µM
280 °C	Cc1c2n(c3c(-c4ccc(F)nc4)cc(C#N)cc13)CCCNC2=O [Example 209, 7-(6-Fluoropyridin-3-yl)-11-methyl-1-oxo-2,3,4,5-tetrahydro-[1,4]diazepino[1,2-a]indole-9-carbonitrile]	0.16 µM
